# Source: patent US10010560B2, “Small molecule HSP70 inhibitors” (THE TRUSTEES OF THE UNIVERSITY OF PENNSYLVANIA, priority 2014, dated 2018)
# Experiments:
# ADP-HSP70 D506A = target: T1, ADP-HSP70 D506A (Homo sapiens, UniProt P0DMV8, D506A/E110D); assay: ITC, mutated full-length ADP-HSP70; assay type: binding; settings: ADP-HSP70 mutant D506A
# T1 construct: The full-length HSP70 and DnaK mutants were constructed by PCR-based site-directed mutagenesis; His6 (N); made in house; host or cells: E. coli BL21 Star (DE3)
# Description: (§1) The human stress-inducible HSP70 (residues 1-641 or 386-616 of SEQ ID NO: 2) and E. coli DnaK (residues 1-638, 389-607, or 393-507 of SEQ ID NO: 4) were cloned into the pET25 vector (EMD Millipore Chemicals, Inc., Billerica, Mass., USA) between the NdeI and XhoI restriction sites. The full-length HSP70 and DnaK mutants were constructed by PCR-based site-directed mutagenesis using the QuikChange™ Site-Directed Mutagenesis Kit (Agilent Technologies, Inc., Santa Clara, Calif., USA). All plasmid inserts were verified by DNA sequencing. All HSP70 and DnaK variants were produced with a N-terminal His6-tag in the E. coli BL21 Star (DE3) strain (Invitrogen catalog number C6010-03). The resulting strains were grown at 37° C. in LB medium containing 50 μg/mL of carbenicillin (Sigma-Aldrich Co., St. Louis, Mo., USA). At an OD600 about 0.3 to about 0.5, protein expression was induced with 0.5 mM isopropyl-β-D-thiogalactopyranoside (IPTG), and cells were subsequently grown at 25° C. for about 16 h. Cells were collected by centrifugation and resuspended in the Bugbuster® Master Mix (EMD Millipore Chemicals catalog number 71456-4), supplemented with protease inhibitors, 1 mM diethiothreitol (DTT) and 20 mM imidazole. The His6-tagged fusion proteins were isolated on Ni^2+-chelating resins (Ni-NTA Superflow, Qiagen catalog number 30410) by standard procedures. When necessary, size-exclusion chromatography on a Superdex® 200 or a Superose® 6 10/300 GL columns (GE Healthcare) analytical column pre-equilibrated with 1× Dulbecco's Phosphate Buffered Saline (DPBS—Invitrogen 14190-136), 1 mM Tris-HCl (pH 7.4) or 10 mM Tris-HCl (pH 7) was used as the final purification step. The purified DnaK proteins were dialyzed thoroughly against 1× DPBS with 5 mM DTT at 4° C., for crystallization trials involving the small molecule inhibitor PET-16. For isothermal titration calorimetry studies, all HSP70 and DnaK variants were dialyzed extensively against the buffers as noted below under the section entitled “Isothermal Titration calorimetry Studies”. The dialyzed proteins were subsequently microcentrifugated at 15,000×g for 5 min at 4° C. and aliquots of the soluble proteins were stored at −80° C.
# (§2) All ITC experiments were performed using a MicroCal VP-ITC isothermal titration calorimeter (MicroCal). Both full-length HSP70 and DnaK proteins and DnaK (aa 393-507) proteins were prepared in 1 mM Tris-HCl (pH 7.4) buffer containing 3% dimethylsulfoxide (DMSO). The HSP70 (aa 386-616) protein was prepared in buffer containing 3% DMSO and 10 mM Tris-HCl, pH 7. The syringe was loaded with purified protein in either 1 mM Tris-HCl (pH 7.4) buffer containing 3% DMSO or 10 mM Tris-HCl (pH 7) buffer containing 3% DMSO. The sample cell of the calorimeter was loaded with PES, PET-16 or NRLLLTG (SEQ ID NO: 7) prepared in the same buffer. All solutions were degassed for 5 min.
# (§3) The titrations involving the full-length purified proteins were performed at 25° C. with injection volumes of 12 μL and a spacing of 300 s. The titrations involving the purified HSP70 (aa 386-616) and DnaK (aa 393-507) were performed at 42° C. with injection volumes of 12 μL and a spacing of 300 s. Heat from the pre-injection was not used during fitting. The data were fit using a one-site binding model available in the Origin® ITC data analysis software (MicroCal Origin® V5.0, MicroCal Software, Northampton, Mass.). Error values obtained from the MicroCal Origin® V5.0 software were averaged and reported.
# (§4) The information from crystal structure analysis pointed to particular amino acid residues as potential contact sites for interaction with PET-16. Single point mutants were thereby introduced in the context of a full-length DnaK protein, as well as at the corresponding residues within HSP70; these mutant proteins were analyzed by ITC for ability to bind to PET-16. The DnaK mutations included residues L392D, P396L, L399R, G482D, A503D and […]; those in HSP70 were L394D, P398L, L401R, G484D, N505D and D506A. […]
# ADP-HSP70 G484D = target: T2, ADP-HSP70 G484D (Homo sapiens, UniProt P0DMV8, E110D/G484D); assay: ITC, mutated full-length ADP-HSP70; assay type: binding; settings: ADP-HSP70 mutant G484D
# T2 construct: The full-length HSP70 and DnaK mutants were constructed by PCR-based site-directed mutagenesis; His6 (N); made in house; host or cells: E. coli BL21 Star (DE3)
# Description: as §1, §2, §3, §4
# ADP-HSP70 L394D = target: T3, ADP-HSP70 L394D (Homo sapiens, UniProt P0DMV8, E110D/L394D); assay: ITC, mutated full-length ADP-HSP70; assay type: binding; settings: ADP-HSP70 mutant L394D
# T3 construct: The full-length HSP70 and DnaK mutants were constructed by PCR-based site-directed mutagenesis; His6 (N); made in house; host or cells: E. coli BL21 Star (DE3)
# Description: as §1, §2, §3, §4
# ADP-HSP70 L401R = target: T4, ADP-HSP70 L401R (Homo sapiens, UniProt P0DMV8, E110D/L401R); assay: ITC, mutated full-length ADP-HSP70; assay type: binding; settings: ADP-HSP70 mutant L401R
# T4 construct: The full-length HSP70 and DnaK mutants were constructed by PCR-based site-directed mutagenesis; His6 (N); made in house; host or cells: E. coli BL21 Star (DE3)
# Description: as §1, §2, §3, §4
# ADP-HSP70 N505D = target: T5, ADP-HSP70 N505D (Homo sapiens, UniProt P0DMV8, E110D/N505D); assay: ITC, mutated full-length ADP-HSP70; assay type: binding; settings: ADP-HSP70 mutant N505D
# T5 construct: The full-length HSP70 and DnaK mutants were constructed by PCR-based site-directed mutagenesis; His6 (N); made in house; host or cells: E. coli BL21 Star (DE3)
# Description: as §1, §2, §3, §4
# ADP-HSP70 P398L = target: T6, ADP-HSP70 P398L (Homo sapiens, UniProt P0DMV8, E110D/P398L); assay: ITC, mutated full-length ADP-HSP70; assay type: binding; settings: ADP-HSP70 mutant P398L
# T6 construct: The full-length HSP70 and DnaK mutants were constructed by PCR-based site-directed mutagenesis; His6 (N); made in house; host or cells: E. coli BL21 Star (DE3)
# Description: as §1, §2, §3, §4
# [1] = system: human melanoma (A875) cells; assay: Viability of A875 melanoma cells versus IMR90 fibroblasts; assay type: cell-based; settings: 10 μM, 24 h, A875 vs IMR90
# Experimental: FIGS. 2A-2D illustrate the cytotoxicity of PET-16 to human tumor cells and its inhibition on E. coli growth. FIG. 2A is a line graph with data obtained from MTT assays of human melanoma cell lines treated with the indicated concentrations of PES or PET-16 for 72 h. The corresponding cell survival is normalized to vehicle (DMSO) treatment. Average and standard deviation (s.d.) from three independent experiments are shown. FIG. 2B are bar graphs of human melanoma (A875) cells and nontransformed human (IMR90) fibroblasts that were treated with DMSO, 10 μM PES or 10 μM PET-16 for 24 h. […] FIG. 2C is a line graph illustrating the growth of E. coli DH5α treated with different concentrations of PES or PET-16 for 6 h at 43° C. Error bars represent the s.d. of four independent experiments. FIG. 2D is a bar graph illustrating the growth of E. coli DH5α treated with DMSO, 30 μM PET-16 or 30 μM TPP for 6 h at 43° C. Error bars represent the s.d. of four independent experiments.
# T6 sequence (P0DMV8 whole entry E110D/P398L): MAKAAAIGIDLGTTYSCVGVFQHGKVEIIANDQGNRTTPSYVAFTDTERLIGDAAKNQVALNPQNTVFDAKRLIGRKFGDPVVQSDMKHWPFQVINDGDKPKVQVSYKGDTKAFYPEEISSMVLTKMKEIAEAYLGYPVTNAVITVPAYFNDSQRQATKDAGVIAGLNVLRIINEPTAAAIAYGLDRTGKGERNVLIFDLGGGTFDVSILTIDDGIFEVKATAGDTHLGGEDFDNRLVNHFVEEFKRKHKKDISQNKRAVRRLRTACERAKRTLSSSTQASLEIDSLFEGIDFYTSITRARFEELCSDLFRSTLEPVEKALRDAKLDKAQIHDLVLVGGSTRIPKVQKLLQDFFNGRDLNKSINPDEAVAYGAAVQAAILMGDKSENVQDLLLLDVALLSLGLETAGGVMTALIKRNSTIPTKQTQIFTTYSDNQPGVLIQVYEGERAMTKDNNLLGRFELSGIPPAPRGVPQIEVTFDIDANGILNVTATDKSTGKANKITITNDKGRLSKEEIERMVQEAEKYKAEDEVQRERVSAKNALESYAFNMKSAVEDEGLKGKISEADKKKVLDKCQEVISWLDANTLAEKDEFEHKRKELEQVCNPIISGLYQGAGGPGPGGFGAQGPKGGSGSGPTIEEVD
# T2 sequence (P0DMV8 whole entry E110D/G484D): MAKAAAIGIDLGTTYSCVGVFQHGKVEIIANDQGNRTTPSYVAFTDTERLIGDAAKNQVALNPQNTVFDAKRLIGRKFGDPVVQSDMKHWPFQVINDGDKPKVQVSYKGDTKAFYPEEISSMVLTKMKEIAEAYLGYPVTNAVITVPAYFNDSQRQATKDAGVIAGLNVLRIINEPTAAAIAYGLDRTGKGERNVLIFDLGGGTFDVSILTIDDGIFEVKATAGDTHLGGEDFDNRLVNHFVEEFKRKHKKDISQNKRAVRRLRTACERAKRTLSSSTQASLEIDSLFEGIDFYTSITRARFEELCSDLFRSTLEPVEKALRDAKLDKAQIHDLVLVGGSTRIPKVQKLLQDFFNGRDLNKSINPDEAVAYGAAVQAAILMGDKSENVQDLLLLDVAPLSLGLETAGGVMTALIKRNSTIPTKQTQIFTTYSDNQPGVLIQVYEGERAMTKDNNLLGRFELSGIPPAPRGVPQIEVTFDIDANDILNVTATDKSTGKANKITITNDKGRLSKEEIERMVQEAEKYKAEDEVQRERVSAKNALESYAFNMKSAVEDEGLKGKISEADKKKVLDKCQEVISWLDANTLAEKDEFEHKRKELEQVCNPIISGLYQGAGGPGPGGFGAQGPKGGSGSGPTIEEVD
# T1 sequence (P0DMV8 whole entry E110D/D506A): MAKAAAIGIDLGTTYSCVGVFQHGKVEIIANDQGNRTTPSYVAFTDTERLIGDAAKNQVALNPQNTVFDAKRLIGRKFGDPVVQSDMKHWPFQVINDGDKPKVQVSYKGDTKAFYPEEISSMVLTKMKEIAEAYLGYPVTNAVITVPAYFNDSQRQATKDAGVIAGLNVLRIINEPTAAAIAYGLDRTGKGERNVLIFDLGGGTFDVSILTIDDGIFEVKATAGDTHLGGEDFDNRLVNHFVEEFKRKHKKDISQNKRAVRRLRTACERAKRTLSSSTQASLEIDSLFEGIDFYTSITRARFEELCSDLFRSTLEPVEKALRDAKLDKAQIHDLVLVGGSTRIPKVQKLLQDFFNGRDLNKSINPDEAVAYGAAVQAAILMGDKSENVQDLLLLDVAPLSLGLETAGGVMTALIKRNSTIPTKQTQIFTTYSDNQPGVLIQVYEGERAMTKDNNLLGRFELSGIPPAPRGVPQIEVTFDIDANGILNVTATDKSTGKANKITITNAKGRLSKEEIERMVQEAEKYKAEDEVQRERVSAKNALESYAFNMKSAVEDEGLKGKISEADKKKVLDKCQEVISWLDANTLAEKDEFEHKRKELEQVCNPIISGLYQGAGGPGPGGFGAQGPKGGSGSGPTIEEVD
# T5 sequence (P0DMV8 whole entry E110D/N505D): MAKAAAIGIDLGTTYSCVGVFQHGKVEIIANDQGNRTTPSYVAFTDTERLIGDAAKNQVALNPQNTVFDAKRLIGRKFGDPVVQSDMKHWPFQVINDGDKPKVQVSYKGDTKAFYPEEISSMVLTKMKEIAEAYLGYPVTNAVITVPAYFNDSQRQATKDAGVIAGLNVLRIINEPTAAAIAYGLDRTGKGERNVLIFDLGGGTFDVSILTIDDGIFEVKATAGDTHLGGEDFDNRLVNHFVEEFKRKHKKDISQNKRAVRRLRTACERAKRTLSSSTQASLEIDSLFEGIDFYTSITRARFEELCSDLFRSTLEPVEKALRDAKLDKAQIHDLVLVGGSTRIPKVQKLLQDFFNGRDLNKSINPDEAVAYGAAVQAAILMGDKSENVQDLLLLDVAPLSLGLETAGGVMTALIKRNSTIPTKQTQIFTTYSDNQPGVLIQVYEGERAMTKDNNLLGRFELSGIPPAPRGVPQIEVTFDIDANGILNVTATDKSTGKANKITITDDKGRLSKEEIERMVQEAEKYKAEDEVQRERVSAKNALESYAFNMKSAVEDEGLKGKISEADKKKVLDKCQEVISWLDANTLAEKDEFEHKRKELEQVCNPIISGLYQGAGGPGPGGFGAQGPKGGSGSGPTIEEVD
# T3 sequence (P0DMV8 whole entry E110D/L394D): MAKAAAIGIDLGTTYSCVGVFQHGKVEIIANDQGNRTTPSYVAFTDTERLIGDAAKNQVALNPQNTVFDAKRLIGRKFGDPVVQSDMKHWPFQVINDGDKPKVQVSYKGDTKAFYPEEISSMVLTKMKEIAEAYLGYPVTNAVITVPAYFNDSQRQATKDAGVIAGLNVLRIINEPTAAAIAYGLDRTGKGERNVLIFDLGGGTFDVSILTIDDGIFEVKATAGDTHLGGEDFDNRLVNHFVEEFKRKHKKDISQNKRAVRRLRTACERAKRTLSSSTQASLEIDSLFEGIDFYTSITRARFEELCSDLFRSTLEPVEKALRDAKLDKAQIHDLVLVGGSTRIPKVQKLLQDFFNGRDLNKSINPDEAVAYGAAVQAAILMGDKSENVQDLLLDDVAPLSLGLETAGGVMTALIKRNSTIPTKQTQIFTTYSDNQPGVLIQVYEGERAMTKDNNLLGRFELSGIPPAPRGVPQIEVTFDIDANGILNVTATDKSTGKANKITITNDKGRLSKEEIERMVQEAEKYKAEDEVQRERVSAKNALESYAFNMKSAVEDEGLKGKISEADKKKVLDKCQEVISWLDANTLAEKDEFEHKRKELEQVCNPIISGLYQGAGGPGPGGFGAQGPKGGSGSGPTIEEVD
# T4 sequence (P0DMV8 whole entry E110D/L401R): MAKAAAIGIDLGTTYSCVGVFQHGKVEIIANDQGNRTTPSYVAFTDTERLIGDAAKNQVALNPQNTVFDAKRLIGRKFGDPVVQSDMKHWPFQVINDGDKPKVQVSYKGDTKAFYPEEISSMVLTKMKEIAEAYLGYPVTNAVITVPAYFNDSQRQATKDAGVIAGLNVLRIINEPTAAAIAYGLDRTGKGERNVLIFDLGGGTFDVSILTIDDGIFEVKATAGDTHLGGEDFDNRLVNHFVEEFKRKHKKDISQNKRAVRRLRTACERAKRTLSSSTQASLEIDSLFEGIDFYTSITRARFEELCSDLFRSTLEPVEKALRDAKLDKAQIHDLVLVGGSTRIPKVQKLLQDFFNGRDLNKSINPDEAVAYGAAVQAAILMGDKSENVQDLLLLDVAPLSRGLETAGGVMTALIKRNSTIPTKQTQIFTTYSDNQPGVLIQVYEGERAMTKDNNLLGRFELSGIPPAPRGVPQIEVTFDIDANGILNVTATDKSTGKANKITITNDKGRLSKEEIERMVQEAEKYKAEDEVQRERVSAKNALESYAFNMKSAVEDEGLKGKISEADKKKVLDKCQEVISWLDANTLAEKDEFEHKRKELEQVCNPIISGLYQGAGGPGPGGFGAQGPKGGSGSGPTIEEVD
compound,measurement,setting,value
"C(#C[P+](c1ccccc1)(c1ccccc1)c1ccccc1)c1ccccc1.[Br-] [PET-16, triphenyl(phenylethynyl)phosphonium bromide]",Kd,ADP-HSP70 D506A,112 ± 3.8 µM
same,Kd,ADP-HSP70 G484D,98.8 ± 5.1 µM
same,Kd,ADP-HSP70 L394D,30.8 ± 0.6 µM
same,Kd,ADP-HSP70 L401R,43.2 ± 9.9 µM
same,Kd,ADP-HSP70 N505D,147 ± 6.5 µM
same,Kd,ADP-HSP70 P398L,23.4 ± 1.2 µM
same,cytotoxicity tumor versus nontransformed cells,[1],preferentially cytotoxic for tumor cells
